Settings: Liquid, Ebulliometric method (Recirculating still)

COCC(CO)OC (stereo not given) [2,3-dimethoxy-1-propanol]
Settings	vapor or sublimation pressure [kPa]
337.95 K	3.2
368.95 K	7.84
398.1 K	19.27
408.55 K	27.33
413.05 K	32.46
419.7 K	38.8
423.55 K	45.86
431.55 K	59.8
433.15 K	65.6
434.85 K	70.66
437.35 K	76.53
439.75 K	83.33
441.65 K	87.26
444.45 K	95.73
446.65 K	100.79

— the NIST ThermoML archive (doi:10.1021/je500606d)
